Earlier results on 1 molecule are cited in patent publication US9334264B2, “NAMPT inhibitors” (AbbVie Inc., priority 2012, dated 2016).

For data set [1], the system named is activated T cells. The conditions noted are these: cited from earlier work.
Data set [2] concerns collagen-induced arthritis. The conditions noted are these: cited from earlier work.
Data set [3] deals with experimental autoimmune encephalomyelitis (EAE). Particulars: a model of T-cell mediated autoimmune disorders; cited from earlier work.

In the case of `O=C(/C=C/c1cccnc1)NCCCCC1CCN(C(=O)c2ccccc2)CC1` [FK866], in data set [1], the “apoptosis of activated T cells” value is recorded as “induce apoptosis” and the “proliferation of activated T cells” value is “selectively block proliferation”. In data set [2], the “efficacy in animal models of arthritis” value was “efficacious”. In data set [3], the “manifestations of experimental autoimmune encephalomyelitis” value is “ameliorated the manifestations”.
